The values below come from ChEMBL document CHEMBL1142387, “Synthetic homoserine lactone-derived sulfonylureas as inhibitors of Vibrio fischeri quorum sensing regulator” (Bioorg Med Chem, 2008).

The target of the assay is T1, Transcriptional activator protein LuxR (Aliivibrio fischeri, UniProt P12746).
T1 sequence (P12746 whole entry): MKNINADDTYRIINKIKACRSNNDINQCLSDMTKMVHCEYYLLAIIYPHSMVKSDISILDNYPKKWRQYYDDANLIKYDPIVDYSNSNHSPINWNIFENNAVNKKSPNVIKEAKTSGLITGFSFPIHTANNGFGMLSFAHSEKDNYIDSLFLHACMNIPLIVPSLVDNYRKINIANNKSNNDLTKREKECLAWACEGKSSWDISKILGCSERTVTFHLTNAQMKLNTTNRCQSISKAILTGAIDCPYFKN
The assay can be described thus: Antagonist activity at LuxR in Vibrio fischeri assessed as inhibition of N-3-oxos-hexanoyl-L-homoserine lactone induced luminescence. In kind it is functional.
Regarding `CCCCCS(=O)(=O)NC1CCOC1=O` (stereo unspecified), the half-inhibitory concentration (IC50) came to 3 µM.
In the case of `O=C1OCCC1NS(=O)(=O)NCCCc1ccccc1` (stereo unspecified) it was 9.4 µM; in that of `CCCCNC(=O)NC1CCOC1=O` (stereo unspecified), 5 µM.
In the case of `CCCCCCCCCCNS(=O)(=O)NC1CCOC1=O` (stereo unspecified) it was 7.8 µM; in that of `CCCCNS(=O)(=O)NC1CCOC1=O` (stereo unspecified), 3.6 µM; in that of `CCCCCNS(=O)(=O)NC1CCOC1=O` (stereo unspecified), 2 µM.
With `O=C1OCCC1NS(=O)(=O)NCCc1ccccc1` (stereo unspecified), the half-inhibitory concentration (IC50) turned out to be 13 µM.
In the case of `O=C1OCCC1NS(=O)(=O)NCc1ccccc1` (stereo unspecified) it was 6.4 µM; in that of `O=C1OCCC1NS(=O)(=O)NCCCCc1ccccc1` (stereo unspecified), 13 µM.
Take `CCCCCCCCNS(=O)(=O)NC1CCOC1=O` (stereo unspecified): the IC50 stood at 7.2 µM.
Take `CCCCCCNS(=O)(=O)NC1CCOC1=O` (stereo unspecified): the IC50 is 5 µM.
